Patent US20250361253A1, “STING AGONIST COMPOUNDS” (Sutro Biopharma, Inc., priority 2022, published 2025)

Tests used:
[1] = target: T1, hSTING-R232 (Homo sapiens, UniProt Q86WV6, H232R); experiment: ISG reporter induction in 293-Dual hSTING-R232 reporter cells (QUANTI-Blue); assay type: cell-based; details: 293-Dual hSTING-R232 cells, overnight incubation
T1 construct: host or cells: 293-Dual (HEK293-derived) reporter cells
Protocol: (§1) Certain STING compounds of the disclosure were evaluated in an in vitro cell based assay.
(§2) 293-Dual hSTING-R232 and mSTING cells (Invivogen) were seeded at 25,000 cells/well (50 ul) and co-cultured with STING agonists (2× concentration, 50 ul) in clear, half-area, 96-well polystyrene plates. Cells and test samples were prepared in DMEM supplemented with 10% FBS, Glutamax, and PenStrep. After overnight incubation at 37 C in a CO2 incubator, 20 ul of supernatant was added to QUANTI-Blue detection reagent (Invivogen). After one hour incubation at 37 C, plates were read at 640/650 nm on EnVision plate reader (PerkinElmer). OD values were plotted by log(agonist) vs. response, variable slope, four parameter curve fit (Log transform) using GraphPad Prism software to determine EC50 values.

[2] = target: T2, mSTING (Mus musculus, UniProt Q3TBT3); experiment: ISG reporter induction in 293-Dual mSTING reporter cells (QUANTI-Blue); assay type: cell-based; details: 293-Dual mSTING cells, overnight incubation
T2 construct: host or cells: 293-Dual (HEK293-derived) reporter cells
T2 sequence (Q3TBT3 1-378): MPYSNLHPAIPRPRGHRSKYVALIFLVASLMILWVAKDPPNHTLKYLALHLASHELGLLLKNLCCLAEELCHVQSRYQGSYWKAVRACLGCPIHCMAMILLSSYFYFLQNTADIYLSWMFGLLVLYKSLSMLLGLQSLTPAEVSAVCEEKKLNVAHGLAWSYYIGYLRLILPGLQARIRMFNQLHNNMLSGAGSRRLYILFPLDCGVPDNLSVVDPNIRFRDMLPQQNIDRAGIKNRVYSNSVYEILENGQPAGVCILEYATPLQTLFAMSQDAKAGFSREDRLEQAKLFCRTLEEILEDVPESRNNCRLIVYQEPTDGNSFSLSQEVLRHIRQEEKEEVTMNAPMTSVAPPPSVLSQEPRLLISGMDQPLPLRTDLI
Protocol: as §1, §2

[3] = target: T3, hSTING WT (Homo sapiens, UniProt Q86WV6); experiment: Thermal shift assay (DSF); assay type: binding; set-up: unit not given here; details: compound at 3.12 uM
T3 sequence (Q86WV6 155-341 H232R limits assumed): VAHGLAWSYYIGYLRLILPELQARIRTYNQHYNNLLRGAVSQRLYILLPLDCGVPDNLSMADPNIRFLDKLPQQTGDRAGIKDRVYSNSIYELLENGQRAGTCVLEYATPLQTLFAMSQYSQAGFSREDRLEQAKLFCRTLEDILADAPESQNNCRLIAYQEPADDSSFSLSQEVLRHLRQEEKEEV
Text: Thermal shift assay experimental methods were followed based on the published methods described in Ramanjulu et al. Nature, 2018, 564, 439.

[4] = target: T3, hSTING WT; experiment: Surface plasmon resonance assay; assay type: binding; details: read-out: hSTING WT SPR (Kd)
Protocol: Surface plasmon resonance assay experimental methods were followed based on the published methods described in Pan et al., Science, 2020 369, eaba6098. (“A” means EC50≤20 nM).

T1 sequence (Q86WV6 whole entry H232R): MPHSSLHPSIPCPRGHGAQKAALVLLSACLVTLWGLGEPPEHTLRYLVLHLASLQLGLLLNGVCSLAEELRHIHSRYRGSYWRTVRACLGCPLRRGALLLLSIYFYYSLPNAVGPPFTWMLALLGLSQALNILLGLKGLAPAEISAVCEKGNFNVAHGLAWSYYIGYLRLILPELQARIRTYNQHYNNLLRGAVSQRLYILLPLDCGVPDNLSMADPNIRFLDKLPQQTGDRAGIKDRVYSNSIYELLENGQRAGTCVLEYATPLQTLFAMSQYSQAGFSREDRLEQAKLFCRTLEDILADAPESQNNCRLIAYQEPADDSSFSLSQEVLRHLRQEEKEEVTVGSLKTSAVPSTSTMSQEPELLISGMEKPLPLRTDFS

EC50 [1] [nM] | EC50 [2] [nM] | hSTING WT DSF (delta TmD @ 3.12 uM) [3] | Kd [4] [nM] | SMILES
> 150 | 50 to 150 |  |  | COc1cc2sc(C(=O)CC(C)(C)C(=O)O)cc2c(F)c1OCCCOc1c(OC)cc2sc(C3CC3CC(=O)O)cc2c1F (centres unmarked) [Compound 12, 4-(5-(3-((2-(2-(carboxymethyl)cyclopropyl)-4-fluoro-6-methoxybenzo[b]thiophen-5-yl)oxy)propoxy)-4-fluoro-6-methoxybenzo[b]thiophen-2-yl)-2,2-dimethyl-4-oxobutanoic acid]
> 150 | > 150 |  |  | COc1cc2sc(CCP(=O)(O)O)cc2c(F)c1OCCCOc1c(OC)cc2sc(C(=O)CC(C)(C)C(=O)O)cc2c1F [Compound 19]
> 150 | ≤ 50 |  |  | COc1cc2sc(C(=O)CCS(=O)(=O)O)cc2c(F)c1OCCCOc1c(OC)cc2sc(C(=O)CC(C)(C)C(=O)O)cc2c1F [Compound 14, 4-(4-fluoro-5-(3-((4-fluoro-6-methoxy-2-(3-sulfopropanoyl)benzo[b]thiophen-5-yl)oxy)propoxy)-6-methoxybenzo[b]thiophen-2-yl)-2,2-dimethyl-4-oxobutanoic acid]
≤ 50 | ≤ 50 | 20 | ≤ 20 | COc1cc2sc(C(=O)CC(C)(C)C(=O)O)cc2c(F)c1OCCCOc1c(OC)cc2sc(C(=O)CP(=O)(O)O)cc2c1F [Compound 6, 4-(4-Fluoro-5-(3-((4-fluoro-6-methoxy-2-(2-phosphonoacetyl)benzo[b]thiophen-5-yl)oxy)propoxy)-6-methoxybenzo[b]thiophen-2-yl)-2,2-dimethyl-4-oxobutanoic acid]
> 150 | 50 to 150 | 20 | ≤ 20 | COc1cc2sc(C(=O)CC(C)(C)C(=O)O)cc2c(F)c1OCCCOc1c(OC)cc2sc(C(=O)CS(=O)(=O)O)cc2c1F [Compound 1, 4-(4-Fluoro-5-(3-((4-fluoro-6-methoxy-2-(2-sulfoacetyl)benzo[b]thiophen-5-yl)oxy)propoxy)-6-methoxybenzo[b]thiophen-2-yl)-2,2-dimethyl-4-oxobutanoic acid]
50 to 150 | 50 to 150 |  |  | COc1cc2sc(C(=O)CC(C)(C)C(=O)O)cc2c(F)c1OCCCOc1ccc2cc(C(=O)CCC(=O)O)ccc2c1 [Compound 13, 4-(5-(3-((6-(3-Carboxypropanoyl)naphthalen-2-yl)oxy)propoxy)-4-fluoro-6-methoxybenzo[b]thiophen-2-yl)-2,2-dimethyl-4-oxobutanoic acid]
≤ 50 | ≤ 50 |  |  | COc1cc2nc(C(=O)CCC(=O)O)ccc2c(F)c1OCCCOc1c(OC)cc2sc(C(=O)CC(C)(C)C(=O)O)cc2c1F [Compound 23, 4-(5-(3-((2-(3-Carboxypropanoyl)-5-fluoro-7-methoxyquinolin-6-yl)oxy)propoxy)-4-fluoro-6-methoxybenzo[b]thiophen-2-yl)-2,2-dimethyl-4-oxobutanoic acid]
> 150 | > 150 |  |  | COc1cc2cc(C(=O)CCC(=O)O)ccc2cc1OCCCOc1c(OC)cc2sc(C(=O)CC(C)(C)C(=O)O)cc2c1F [Compound 22]
≤ 50 | ≤ 50 |  |  | COc1cc2sc(/C=C/CC(=O)O)cc2c(F)c1OCCCOc1c(OC)cc2sc(C(=O)CC(C)(C)C(=O)O)cc2c1F [Compound 11, (E)-4-(5-(3-((2-(3-carboxy-3-methylbutanoyl)-4-fluoro-6-methoxybenzo[b]thiophen-5-yl)oxy)propoxy)-4-fluoro-6-methoxybenzo[b]thiophen-2-yl)but-3-enoic acid]
≤ 50 | ≤ 50 |  |  | COc1cc2sc(C(=O)CCC(=O)O)cc2c(F)c1OCCCOc1c(OC)cc2sc(C(=O)CP(=O)(O)O)cc2c1F [Compound 20]
> 150 | > 150 |  |  | COc1cc2cc(C(=O)CCC(=O)O)ccc2c(F)c1OCCCOc1c(OC)cc2sc(C(=O)CC(C)(C)C(=O)O)cc2c1F [Compound 16, 4-(5-(3-((6-(3-Carboxypropanoyl)-1-fluoro-3-methoxynaphthalen-2-yl)oxy)propoxy)-4-fluoro-6-methoxybenzo[b]thiophen-2-yl)-2,2-dimethyl-4-oxobutanoic acid]
> 150 | > 150 |  |  | COc1cc2sc(C(=O)CC(C)(C)C(=O)O)cc2c(F)c1OCCCOc1ccc2cc(C(=O)CCC(=O)O)ccc2c1F [Compound 15, 4-(5-(3-((6-(3-Carboxypropanoyl)-1-fluoronaphthalen-2-yl)oxy)propoxy)-4-fluoro-6-methoxybenzo[b]thiophen-2-yl)-2,2-dimethyl-4-oxobutanoic acid]
> 150 | ≤ 50 |  |  | COc1cc2sc(C(=O)CCP(=O)(O)O)cc2c(F)c1OCCCOc1c(OC)cc2sc(C(=O)CC(C)(C)C(=O)O)cc2c1F [Compound 21]

The next lines start with the molecule.

SMILES | EC50 [1] [nM] | EC50 [2] [nM] | hSTING WT DSF (delta TmD @ 3.12 uM) [3] | Kd [4] [nM]
COc1cc2sc(C(=O)CC(C)(C)C(=O)O)cc2c(F)c1OCCCOc1c(OC)cc2sc(C(=O)CC(C)(C)P(=O)(O)O)cc2c1F [Compound 9, 4-(4-Fluoro-5-(3-((4-fluoro-6-methoxy-2-(3-methyl-3-phosphonobutanoyl)benzo[b]thiophen-5-yl)oxy)propoxy)-6-methoxybenzo[b]thiophen-2-yl)-2,2-dimethyl-4-oxobutanoic acid] | > 150 | > 150 |  | 
COc1cc2sc(/C=C/CC(=O)O)cc2c(F)c1OCCCOc1c(OC)cc2sc(C(=O)CP(=O)(O)O)cc2c1F [Compound 32] | 50 to 150 | > 150 |  | 
COc1cc2sc(C(=O)CC(C)(C)C(=O)O)cc2c(F)c1OCCCOc1c(OC)cc2sc(C(=O)CC(C)(C)C(=O)NS(=O)(=O)CCN)cc2c1F [Compound 17, 4-(5-(3-((2-(4-((2-Aminoethyl)sulfonamido)-3,3-dimethyl-4-oxobutanoyl)-4-fluoro-6-methoxybenzo[b]thiophen-5-yl)oxy)propoxy)-4-fluoro-6-methoxybenzo[b]thiophen-2-yl)-2,2-dimethyl-4-oxobutanoic acid] | > 150 | > 150 |  | 
COC(=O)C(C)(C)CC(=O)c1cc2c(F)c(OCCCOc3c(OC)cc4sc(C(=O)CP(=O)(O)O)cc4c3F)c(OC)cc2s1 [Compound 5, (2-(4-Fluoro-5-(3-((4-fluoro-6-methoxy-2-(4-methoxy-3,3-dimethyl-4-oxobutanoyl)benzo[b]thiophen-5-yl)oxy)propoxy)-6-methoxybenzo[b]thiophen-2-yl)-2-oxoethyl)phosphonic acid] | 50 to 150 | 50 to 150 | −0.1 | 
COC(=O)C(C)(C)CC(=O)c1cc2c(F)c(OCCCOc3c(OC)cc4sc(C(=O)CS(=O)(=O)O)cc4c3F)c(OC)cc2s1 [Compound 2, 2-(4-Fluoro-5-(3-((4-fluoro-6-methoxy-2-(4-methoxy-3,3-dimethyl-4-oxobutanoyl)benzo[b]thiophen-5-yl)oxy)propoxy)-6-methoxybenzo[b]thiophen-2-yl)-2-oxoethane-1-sulfonic acid] | > 150 | 50 to 150 |  | 
COC(=O)C(C)(C)CC(=O)c1cc2c(F)c(OCCCOc3c(OC)cc4sc(C(=O)CC(C)(C)P(=O)(O)O)cc4c3F)c(OC)cc2s1 [Compound 10] | > 150 | > 150 |  | 
COc1cc2sc(C(=O)CC(C)(C)C(=O)O)cc2c(C)c1OCCCOc1c(OC)cc2sc(C(=O)CP(=O)(O)O)cc2c1C [Compound 34] | > 150 | > 150 |  | 
COc1cc2sc(C(=O)CC(C)(C)C(=O)O)cc2c(F)c1OCCCOc1c(OC)cc2sc(C(=O)CP(=O)(OC)OC)cc2c1F [Compound 4, 4-(5-(3-((2-(2-(Dimethoxyphosphoryl)acetyl)-4-fluoro-6-methoxybenzo[b]thiophen-5-yl)oxy)propoxy)-4-fluoro-6-methoxybenzo[b]thiophen-2-yl)-2,2-dimethyl-4-oxobutanoic acid] | > 150 | 50 to 150 |  | 
COC(=O)C(C)(C)CC(=O)c1cc2c(F)c(OCCCOc3c(OC)cc4sc(C(=O)CP(=O)(OC)OC)cc4c3F)c(OC)cc2s1 [Compound 3, Methyl 4-(5-(3-((2-(2-(dimethoxyphosphoryl)acetyl)-4-fluoro-6-methoxybenzo[b]thiophen-5-yl)oxy)propoxy)-4-fluoro-6-methoxybenzo[b]thiophen-2-yl)-2,2-dimethyl-4-oxobutanoate] | > 150 | > 150 |  | 
COc1cc2sc(C(=O)CC(C)(C)C(=O)O)cc2c(F)c1OCCCOc1c(OC)cc2sc(C(=O)CC(C)(C)C(=O)NCCN)cc2c1F [Compound 18] | > 150 | > 150 |  | 
COc1cc2sc(/C=C/CC(=O)O)cc2c(F)c1OCCCOc1c(OC)cc2sc(/C=C/CC(=O)O)cc2c1F [Compound 33] | > 150 | > 150 |  | 
